Data set [1] concerns the target SAPK2/p38 (Homo sapiens, UniProt Q16539). Conditions: inhibitor of CK1 and ALK5; cited from earlier work.
The subject of data set [2] is hEPI-NCSC. In words: Differentiation of hEPI-NCSC into Schwann cells. Format: cell-based, human. As to the method: hEPI-NCSC were seeded at 2,500-5,000 cells per CELLstart™-coated 35-mm culture plate and cultured at 36.8° C., 5% CO2 and 5% O2. At differentiation Day minus 3 (D-3), cells were placed in XP medium, which is NeuroCult XF medium (Stem Cell Technologies, Grenoble, France Cat# 05761) supplemented with 10 ng/ml rhFGF2 (R&D Systems, Abingdon, UK Cat# 233-FB), 20 ng/ml rhEGF (R&D Systems Cat# 236-EG), 1× ITS+3 (Sigma, Poole, UK Cat# 1-2771), 1% (v/v) FBS (HyClone, Thermo Fisher, Cramlington, UK Cat# SH30070.02), 1× GlutaMAX (Invitrogen, Cat# 35050-038), 1× Penicillin/Streptomycin (Sigma Cat# P0781) and 2.5 μg/ml Amphotericin B (Sigma Cat# A2942).
The cells in XP medium were treated with 500 ng/ml recombinant human sonic hedgehog (C2411) N-terminus (rhSHH) and 500 nM CHIR99021 for two days. At differentiation Day −1, the cells were subcultured. Cells were detached with TrypLE Select, centrifuged, and plated in XP medium at a density of 30,000 cells per 35 mm culture plate and 1,000 cells per poly-D-lysine and laminin-coated 13-mm diameter glass coverslip. The next day (differentiation Day 0), cells were cultured in Alpha-modified MEM in the presence of 10% FBS and 1 mM β-mercaptoethanol (βME) for 24 hours, which was followed by treatment with 35 ng/ml all-trans-retinoic acid according to the method of Dezawa et al (2001). At differentiation Day 3, the FBS concentration was reduced to 1%. Starting at differentiation Day 0, 10 μM SB431542 was added to the culture medium. Retinoic acid and SB431542 remained in the culture medium throughout the culture period. At Day 3, 10 ng/ml rhFGF2, 5 ng/ml recombinant human PDGF-BB (rhPDGF-BB), 5 μM forskolin, 200 ng/ml recombinant human neuregulin-1 (rhNRG) were added to the culture medium. The culture medium was exchanged every 48 hours.
At Day 0 of differentiation, cells were treated for 24 hours with β-mercaptoethanol, and all-trans-retinoic acid was added on differentiation Day 1 according to the method of Dezawa et al (2001). Neither the three-day treatment with retinoic acid, nor five days of exposure to retinoic acid were sufficient for differentiating hEPI-NCSC into Schwann cells as judged by cell morphology and marker expression. […] At Day 0, SB431542, an inhibitor of transforming growth factor-beta 1 (TGFβ1) activin receptor-like kinases (ALKs), was also added to the culture medium (FIG. 1). […] On Day 3, FGF2, PDGF-BB, forskolin, and neuregulin-1 were added.

In data set [3] the test system is endogenous Schwann cells (non-neuronal cells) of dorsal root ganglia (DRG) explants. The data set can be described thus: Removal of non-neuronal cells from DRG explants. Format: cell-based, rodent. The conditions noted are these: for removal of endogenous Schwann cells from DRG explants: rodent DRG explants, camptothecin 20 μM three times for 48 hours each, data not shown. As to the method:
(§1) Mice ([C57BL/6-TgN(ACTbEGFP)]Osb]; ‘green mice’) (Okabe et al, 1997) and rats were handled in accordance to protocols approved by the Animal Care Committee of Newcastle University (project licence 60/3876). Whole mount DRG explants from E15.5 Wistar rat embryos were dissected as described by Päiväläinen et al. (2008) and Liu et al. (2011). Dissociated DRG cultures from adult ‘green’ mice were prepared according to Malin et al (2007) and Johnson et al (2001). To remove non-neuronal cells, DRG explants were treated with camptothecin (20 μM) three times for 48 hours each, on Days 2-5, 6-8, and 13-15.
(§2) Co-cultures of hEPI-NCSC derived Schwann cells and rodent dorsal root ganglia (DRG) explants were prepared by first treating the DRG explants with camptothecin to eliminate non-neuronal cells. […] Neuronal toxicity of camptothecin has been documented previously (Bhanu and Kondapi, 2010).
Anti-human nuclear antibody immunofluorescence confirmed that all P-zero immunoreactive Schwann cells were of human origin (FIG. 7A-7C; pale blue fluorescence in original).

The test system of data set [4] is large diameter sensory neurons. In words: Neuronal toxicity in DRG explants. Format: cell-based, rodent. How it is done: as §1, §2

Sequence of SAPK2/p38 (Q16539 whole entry): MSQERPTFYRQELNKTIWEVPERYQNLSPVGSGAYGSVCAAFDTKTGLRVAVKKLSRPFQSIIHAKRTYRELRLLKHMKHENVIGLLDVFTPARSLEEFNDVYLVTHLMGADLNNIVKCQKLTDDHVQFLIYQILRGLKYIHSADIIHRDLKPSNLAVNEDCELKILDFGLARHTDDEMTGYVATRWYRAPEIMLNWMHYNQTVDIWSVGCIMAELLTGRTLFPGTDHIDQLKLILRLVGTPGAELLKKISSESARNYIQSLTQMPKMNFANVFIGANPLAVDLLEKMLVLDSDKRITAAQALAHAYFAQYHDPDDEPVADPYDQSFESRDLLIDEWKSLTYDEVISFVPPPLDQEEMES

For the molecule `NC(=O)c1ccc(-c2nc(-c3ccc4c(c3)OCCO4)c(-c3ccccn3)[nH]2)cc1` [D 4476, 4-[4-(2,3-Dihydro-1,4-benzodioxin-6-yl)-5-(2-pyridinyl)-1H-imidazol-2-yl]benzamide], in data set [1], the “selectivity over SAPK2/p38” value is recorded as “greater than 20 fold”. Consider `CC1=C(/C=C/C(C)=C/C=C/C(C)=C/C(=O)O)C(C)(C)CCC1` [Retinoic acid, all-trans-retinoic acid], for which the “deleterious effects to the cells” value in data set [2] (35 ng/ml in the differentiation medium throughout the culture period) is “without any detectable deleterious effects to the cells”. The “Schwann cell differentiation, judged by cell morphology and marker expression” value in data set [2] (retinoic acid treatment for 3 days) and in data set [2] (retinoic acid treatment for 5 days (data not shown)) was “not conducive to highly efficient Schwann cell differentiation” each time. For `NC(=O)c1ccc(-c2nc(-c3ccc4c(c3)OCO4)c(-c3ccccn3)[nH]2)cc1` [SB 431542, 4-[4-(1,3-benzodioxol-5-yl)-5-(2-pyridinyl)-1H-imidazol-2-yl]benzamide], the “effect on differentiation into Schwann cells” value in data set [2] (10 μM throughout the differentiation period) was “facilitated differentiation”.

As to `CC[C@@]1(O)C(=O)OCc2c1cc1n(c2=O)Cc2cc3ccccc3nc2-1` [camptothecin], the “removal of endogenous Schwann cells from DRG explants” value in data set [3] is recorded as “efficiently removed endogenous Schwann cells”. Besides, in data set [3] (whole DRG explants from E15.5 rat embryos, camptothecin 20 μM), the “non-neuronal cells in treated DRG explants” value is given as “clear of non-neuronal cells”. In addition, the “toxicity to sensory neurons” value in data set [4] is given as “selectively toxic to large diameter sensory neurons”.

For the molecule `Nc1ccn([C@@H]2O[C@H](CO)[C@@H](O)[C@@H]2O)c(=O)n1` [cytosine arabinoside], the “removal of endogenous Schwann cells from DRG explants” value in data set [3] is “did not”.

(Values after US20180140637A1, “EPIDERMAL NEURAL CREST STEM CELLS AS A SOURCE OF SCHWANN CELLS” (priority 2015, published 2018).)
